Laboratory results: PMC4932606, “Novel stereoselective bufadienolides reveal new insights into the requirements for Na^+, K^+-ATPase inhibition by cardiotonic steroids” (Scientific Reports, 2016)
Values joined by “and” are separate entries in the source; they are usually repeats but may differ in a detail not shown here. Equal entries are not always repeated.

Key:
Na+,K+-ATPase membranes = experiment: 13C CP-MAS SSNMR of NKA membranes with labelled inhibitor (binding-site saturation estimated from Table 1); parameters: species or system pig; details: NKA 13 nmol with 16 nmol inhibitor
Description: We next considered whether the enhanced activity of 5β arises from the additional hydrogen-bonding capacity of the glucose moiety. […] Here we used ^13C cross-polarization magic-angle spinning (CP-MAS) SSNMR to report on the interactions of the glycosidic groups of 5α and 5β with the binding site. […] In Fig. 5 panels C and D are shown ^13C CP-MAS SSNMR spectra of NKA (13 nmol) in the absence of inhibitor (red) and with 5β or 5α (each 16 nmol) (black), respectively. From Table 1 it is estimated that there is 99.5% saturation of the binding site by 5β and about 75% saturation by 5α. For the complex with 5β (Fig. 5C), signals from the inhibitor can clearly be observed around 60–90 ppm; […].
One dimensional proton-decoupled ^13C CP-MAS NMR experiments were performed at −25 °C using a Bruker Avance 400 MHz spectrometer at a magnetic field of 9.3 T equipped with a 4 mm HXY probe and (for 2D measurements on membranes) on a Bruker Avance III 700 MHz instrument with a 3.2 mm HXY probe operating in double-resonance mode. Samples were spun at a MAS rate of 5 kHz in a 4 mm zirconium rotor. […] Two-dimensional DARR spectra of solid inhibitors were recorded at room temperature with a 2-ms contact time at a field of 63 kHz, 83 kHz SPINAL-64 decoupling, […] and a 8-kHz proton field matched to the spinning frequency during a 10-ms mixing time. […]

[1] = target: T1, Na+, K+-ATPase from pig kidney microsomal membranes (Sus scrofa, UniProt P05024); experiment: Na+,K+-ATPase inhibition assay (residual ATP hydrolysis after 2 h preincubation with inhibitor); assay type: biochemical; details: for KC (equilibrium constant E•I ↔ E•I*): KC = Fhigh/Flow; for Ki: Ki (dissociation constant of initial binding E + I ↔ E•I), derived from KDiss,high and KC; for percentage of high-affinity component (Fhigh): magnitude of high-affinity component of the inhibition curve; for ratio of KDiss,high values α-isomer:β-isomer: stereoselectivity, α:β of the same pair; for percentage of low-affinity component (Flow): magnitude of low-affinity component of the inhibition curve;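 for all read-outs here: enzyme preincubated with inhibitor in 40 mM Tris pH 7.0 containing 3 mM MgCl2 and 3 mM Na-phosphate, remaining activity measured as phosphate released from ATP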
T1 construct: Na^+, K^+-ATPase from pig kidney microsomal membranes was purified by differential centrifugation; from tissue; host or cells: pig kidney microsomal membranes
Description: The residual rates of ATP hydrolysis were plotted vs. different drug concentrations and analysed by fitting hyperbolic functions corresponding to a dominant high-affinity component and (where appropriate) a second smaller low-affinity component, and the resulting kinetic parameters were shown in Table 1.
The solid lines represent hyperbolic fits to the inactivation measured after preincubation of the inhibitors with NKA for 2 hours at 37 °C in the presence of Mg^2+ and Pi.
Na^+, K^+-ATPase from pig kidney microsomal membranes was purified by differential centrifugation[27]. […] The inhibitory effects of bufadienolides on NKA were determined essentially as previously reported[9][10].
Preparation and activity assay of Na+,K+-ATPase
Na+,K+-ATPase from pig kidney microsomal membranes was purified by
differential centrifugation.27 The specific Na,K-ATPase activity was determined
from the difference in the amount of phosphate released in the absence and
4 mM MgCl2 and 3 mM ATP. The specific activity of the enzyme preparation
was approximately 30 µmol ATP hydrolysed/mg protein per min at 37°C.27 The
phosphorylation capacity is about 2.9 nmol/mg protein and is equal to the
high-affinity ouabain binding capacity.10, 27
Details of the kinetic analysis of inhibition
The inhibitory effects of bufadienolides on NKA were determined
essentially as previously reported9, 10. In brief, NKA is preincubated at 37 °C for
2 hours in the presence of 3 mM MgCl2, 3 mM Na-phosphate and 40 mM Tris
(pH 7.0) with increasing concentrations of inhibitor. The residual NKA activity is
subsequently determined by 40-fold dilution into a standard ATPase assay
For each inhibitor concentration the
residual activity was determined in two or three independent experiments and
the error bars in Fig. 4 indicate the standard deviation.
(2) Detailed explanation of the kinetic analysis of inhibition
The interaction between bufalins (I) and Na+,K+-ATPase (E) is interpreted as
relatively slow equilibrium.
The binding of I to E is described by a dissociation constant
The conformational change
is described by an equilibrium constant
After equilibrium is attained by preincubation of the enzyme and inhibitor,
the residual Na+,K+-ATPase activity is measured by a 40-fold dilution into the
assay medium for 2 min. It is assumed that the dilution leads to an immediate
dissociation of E•I into E + I, and it is also assumed that the conformational
change E•I ↔ E•I* is slow on the 2-minutes time scale of the functional assay.
The observed decrease in the Na+,K+-ATPase activity is thus an estimate
of the amount of E•I* present at a given inhibitor concentration in the
preincubation media, and the observed concentration dependence of
inactivation is related to Ki as well as KC.

[2] = KDiss,high, high-affinity component of inhibition curve, preincubation 2 h, 37 °C, Mg2+ and Pi
[3] = KDiss,low, low-affinity component of inhibition curve, reflects ATPase assay medium

Compound	saturation of the binding site (Na+,K+-ATPase membranes)	KC (equilibrium constant E•I ↔ E•I*) [1]	Kd [1, 2]	Ki [1]	percentage of high-affinity component (Fhigh) [1]	ratio of KDiss,high values α-isomer:β-isomer [1]	Kd ([1]; KDiss,low, low-affinity component, value in mM)	Kd [1, 3]	percentage of low-affinity component (Flow) [1]
CON([C@@H]1CC[C@@]2(C)[C@H](CC[C@@H]3[C@@H]2CC[C@]2(C)[C@@H](c4ccc(=O)oc4)CC[C@]32O)C1)[C@@H]1O[C@H](CO)[C@@H](O)[C@H](O)[C@H]1O [Compound 5α]	about 75%	49	39.2 ± 1.5 µM	1920 µM	98%	461	–	–	–
CON[C@H]1CC[C@@]2(C)[C@H](CC[C@@H]3[C@@H]2CC[C@]2(C)[C@@H](c4ccc(=O)oc4)CC[C@]32O)C1 [Compound 4β]	–	6.14	< 0.05 µM	~0.31 µM and 0.31 µM	–	–	> 1000 µM	–	–
C[C@]12CC[C@@](O)(C(F)(F)F)C[C@H]1CC[C@@H]1[C@@H]2CC[C@]2(C)[C@@H](c3ccc(=O)oc3)CC[C@]12O [Compound 6β]	–	1.78	3.56 ± 0.6 µM	6.3 µM	64%	–	–	93.5 ± 67 µM	32%
C[C@]12CC[C@](O)(C(F)(F)F)C[C@H]1CC[C@@H]1[C@@H]2CC[C@]2(C)[C@@H](c3ccc(=O)oc3)CC[C@]12O [Compound 6α]	–	1.86	22.7 ± 1.56 µM	42.2 µM	65%	6.4	–	242 ± 35 µM	33%
CON[C@@H]1CC[C@@]2(C)[C@H](CC[C@@H]3[C@@H]2CC[C@]2(C)[C@@H](c4ccc(=O)oc4)CC[C@]32O)C1 [Compound 4α]	–	9.0	7.26 ± 0.16 µM	65 µM	90%	145	–	524 ± 153 µM	10%
CON(C1CCC2(C)C(CCC3C2CCC2(C)C(c4ccc(=O)oc4)CCC32O)C1)C1OC(CO)C(O)C(O)C1O (stereo not drawn) [Compound 5β]	99.5%	3.17	0.085 ± 0.01 µM	~0.26 µM and 0.26 µM	76%	–	–	67.6 ± 38 µM	–
